Holding throughout (format): functional
For one experiment, the system named is Enterococcus faecalis. Nature of the experiment: Antibacterial activity against Enterococcus faecalis CIP 103015 by broth microdilution method.
The test system of the next experiment is Candida albicans. Put plainly: Antifungal activity against Candida albicans CIP 1180-79 by broth microdilution method.
The next experiment concerns Escherichia coli. Nature of the experiment: Antibacterial activity against Escherichia coli CIP 54127 by broth microdilution method. (In general: In broth dilution the organism is exposed to a series of concentrations in liquid medium.)
The subject of another experiment is Staphylococcus aureus. Put plainly: Antibacterial activity against Staphylococcus aureus CIP 4.83 by broth microdilution method.
For the next experiment, the system named is Saccharomyces cerevisiae. Nature of the experiment: Antifungal activity against Saccharomyces cerevisiae CIP 28383 by broth microdilution method.

Values after ≈ are worked out from the molar mass of the structure shown. A value given as a limit tells only on which side of the number the result lay.

In general, MIC refers to the smallest concentration in the dilution series that meets the test's criterion for growth inhibition. In the case of `CN[C@H]1CC[C@@]2(C)C(=CC[C@H]3[C@@H]4CC[C@H]([C@H](C)CCCC(C)C)[C@@]4(C)CC[C@@H]32)C1`, the MIC was 6.25 µg/mL (≈ 15.6 µM) with Enterococcus faecalis; above 50 µg/mL with Candida albicans; above 50 µg/mL with Escherichia coli; 6.25 µg/mL (≈ 15.6 µM) in the experiment with Staphylococcus aureus; 3.12 µg/mL (≈ 7.82 µM) against Saccharomyces cerevisiae.
As to `CC(C)CCC[C@@H](C)[C@H]1CC[C@H]2[C@@H]3CC[C@H]4C[C@@H](NCCCN)CC[C@]4(C)[C@H]3CC[C@]12C`, the MIC in the experiment with Enterococcus faecalis, with Candida albicans, with Escherichia coli, in the experiment on Staphylococcus aureus and in the experiment with Saccharomyces cerevisiae was above 50 µg/mL throughout.
Consider `CC(C)CCC[C@@H](C)[C@H]1CC[C@H]2[C@@H]3CC=C4C[C@@H](NCCCNCCCCNCCCN)CC[C@]4(C)[C@H]3CC[C@]12C`, for which the minimum inhibitory concentration (MIC) with Enterococcus faecalis is above 50 µg/mL; against Candida albicans, above 50 µg/mL; in the experiment with Escherichia coli, above 50 µg/mL; against Staphylococcus aureus, 6.25 µg/mL (≈ 10.9 µM); against Saccharomyces cerevisiae it was above 50 µg/mL.
With `CC(C)CCC[C@@H](C)[C@H]1CC[C@H]2[C@@H]3CCC4=C[C@@H](NCCN)CC[C@]4(C)[C@H]3CC[C@]12C`, the MIC with Enterococcus faecalis is above 50 µg/mL; against Candida albicans it was above 50 µg/mL; against Escherichia coli, above 50 µg/mL; against Staphylococcus aureus, 12.5 µg/mL (≈ 29.2 µM); in the experiment with Saccharomyces cerevisiae, above 50 µg/mL.
On to `CC(C)CCC[C@@H](C)[C@H]1CC[C@H]2[C@@H]3CC=C4C[C@@H](NCCCN)CC[C@]4(C)[C@H]3CC[C@]12C`, for which the minimal inhibitory concentration (MIC) with Enterococcus faecalis was 6.25 µg/mL (≈ 14.1 µM); with Candida albicans it was above 50 µg/mL; against Escherichia coli, 6.25 µg/mL (≈ 14.1 µM); in the experiment on Staphylococcus aureus it was 6.25 µg/mL (≈ 14.1 µM); in the experiment on Saccharomyces cerevisiae, above 50 µg/mL.
As to `CC(C)CCCC(C)C1CCC2C3CCC4CC(N)CCC4(C)C3CCC12C` (stereo not drawn), the MIC against Enterococcus faecalis was 50 µg/mL (≈ 129 µM); with Candida albicans, 50 µg/mL (≈ 129 µM); against Escherichia coli, above 50 µg/mL; with Staphylococcus aureus it was above 50 µg/mL; against Saccharomyces cerevisiae, above 50 µg/mL.
With `CC(C)CCC[C@@H](C)[C@H]1CC[C@H]2[C@@H]3CC[C@H]4C[C@@H](NCCCCCN)CC[C@]4(C)[C@H]3CC[C@]12C`, the MIC against Enterococcus faecalis was 50 µg/mL (≈ 106 µM); in the experiment on Candida albicans it was 50 µg/mL (≈ 106 µM); in the experiment with Escherichia coli it was above 50 µg/mL; in the experiment on Staphylococcus aureus it was 6.25 µg/mL (≈ 13.2 µM); with Saccharomyces cerevisiae, 25 µg/mL (≈ 52.9 µM).
For `CC(C)CCCC(C)C1CCC2C3CCC4CC(NCCCNCCCCNCCCN)CCC4(C)C3CCC12C` (stereo not drawn), the MIC in the experiment on Enterococcus faecalis was 12.5 µg/mL (≈ 21.8 µM); in the experiment on Candida albicans, 50 µg/mL (≈ 87.3 µM); against Escherichia coli, above 50 µg/mL; in the experiment on Staphylococcus aureus it was 3.12 µg/mL (≈ 5.45 µM); against Saccharomyces cerevisiae, 6.25 µg/mL (≈ 10.9 µM).
As for `CC(C)CCC[C@@H](C)[C@H]1CC[C@H]2[C@@H]3CCC4=C[C@@H](NCCCCCCCCCCN)CC[C@]4(C)[C@H]3CC[C@]12C`, the MIC in the experiment on Enterococcus faecalis, with Candida albicans, in the experiment with Escherichia coli, against Staphylococcus aureus and in the experiment on Saccharomyces cerevisiae was above 50 µg/mL throughout.
For the compound `CC(C)CCC[C@@H](C)[C@H]1CC[C@H]2[C@@H]3CCC4=C[C@@H](NCCCN)CC[C@]4(C)[C@H]3CC[C@]12C`, the MIC in the experiment on Enterococcus faecalis was above 50 µg/mL; against Candida albicans, 25 µg/mL (≈ 56.5 µM); with Escherichia coli, above 50 µg/mL; against Staphylococcus aureus it was 12.5 µg/mL (≈ 28.2 µM); in the experiment on Saccharomyces cerevisiae it was above 50 µg/mL.
Consider `CC(C)CCC[C@@H](C)[C@H]1CC[C@H]2[C@@H]3CCC4=C[C@@H](NCCCCCCCCN)CC[C@]4(C)[C@H]3CC[C@]12C`, for which the MIC in the experiment with Enterococcus faecalis, against Candida albicans, in the experiment on Escherichia coli, in the experiment with Staphylococcus aureus and against Saccharomyces cerevisiae was above 50 µg/mL throughout.
`CC(C)CCC[C@@H](C)[C@H]1CC[C@H]2[C@@H]3CCC4=C[C@@H](NCCCCCN)CC[C@]4(C)[C@H]3CC[C@]12C`: the MIC in the experiment with Enterococcus faecalis was 6.25 µg/mL (≈ 13.3 µM); in the experiment on Candida albicans, above 50 µg/mL; in the experiment on Escherichia coli, above 50 µg/mL; in the experiment on Staphylococcus aureus, 6.25 µg/mL (≈ 13.3 µM); in the experiment with Saccharomyces cerevisiae, above 50 µg/mL.
On to `CC(C)CCC[C@@H](C)[C@H]1CC[C@H]2[C@@H]3CC=C4C[C@@H](NCCN)CC[C@]4(C)[C@H]3CC[C@]12C`, for which the MIC with Enterococcus faecalis was 25 µg/mL (≈ 58.3 µM); against Candida albicans, above 50 µg/mL; in the experiment on Escherichia coli, 12.5 µg/mL (≈ 29.2 µM); against Staphylococcus aureus it was 12.5 µg/mL (≈ 29.2 µM); against Saccharomyces cerevisiae it was above 50 µg/mL.
For the compound `CC(C)CCC[C@@H](C)[C@H]1CC[C@H]2[C@@H]3CC[C@H]4C[C@@H](NCCCCCCN)CC[C@]4(C)[C@H]3CC[C@]12C`, the MIC against Enterococcus faecalis, in the experiment with Candida albicans, against Escherichia coli, in the experiment on Staphylococcus aureus and against Saccharomyces cerevisiae was above 50 µg/mL throughout.
Consider `CNC1CCC2(C)C(CCC3C2CCC2(C)C(C(C)CCCC(C)C)CCC32)C1` (stereo not drawn), for which the minimal inhibitory concentration (MIC) is 6.25 µg/mL (≈ 15.6 µM) in the experiment with Enterococcus faecalis; 12.5 µg/mL (≈ 31.1 µM) with Candida albicans; above 50 µg/mL against Escherichia coli; 6.25 µg/mL (≈ 15.6 µM) against Staphylococcus aureus; 12.5 µg/mL (≈ 31.1 µM) against Saccharomyces cerevisiae.
In the case of `CC(C)[C@@H](CC[C@@H](C)[C@H]1CC[C@H]2[C@@H]3[C@H](O)C[C@H]4C[C@@H](NCCCNCCCCNCCCN)CC[C@]4(C)[C@H]3CC[C@]12C)OS(=O)(=O)O.Cl.Cl.Cl.Cl` [TRODUSQUEMINE HYDROCHLORIDE], the figures for the MIC in the experiment on Candida albicans, against Escherichia coli and in the experiment with Staphylococcus aureus were 4 µg/mL, 4 µg/mL and 1 µg/mL, respectively.
Take `CC(C)CCC[C@@H](C)[C@H]1CC[C@H]2[C@@H]3CC=C4C[C@@H](NCCCCN)CC[C@]4(C)[C@H]3CC[C@]12C`: the MIC was 6.25 µg/mL (≈ 13.7 µM) against Enterococcus faecalis; above 50 µg/mL against Candida albicans; 6.25 µg/mL (≈ 13.7 µM) in the experiment with Escherichia coli; 1.56 µg/mL (≈ 3.42 µM) against Staphylococcus aureus; above 50 µg/mL with Saccharomyces cerevisiae.
As to `CC(C)CCC[C@@H](C)[C@H]1CC[C@H]2[C@@H]3CCC4=C[C@@H](NCCCNCCCCNCCCN)CC[C@]4(C)[C@H]3CC[C@]12C`, the MIC is above 50 µg/mL with Enterococcus faecalis; 50 µg/mL (≈ 87.6 µM) in the experiment with Candida albicans; 50 µg/mL (≈ 87.6 µM) in the experiment on Escherichia coli; 6.25 µg/mL (≈ 10.9 µM) in the experiment on Staphylococcus aureus; above 50 µg/mL against Saccharomyces cerevisiae.
For `CC(C)CCC[C@@H](C)[C@H]1CC[C@H]2[C@@H]3CC[C@H]4C[C@@H](NCCN)CC[C@]4(C)[C@H]3CC[C@]12C`, the MIC in the experiment on Enterococcus faecalis was above 50 µg/mL; against Candida albicans, above 50 µg/mL; in the experiment on Escherichia coli, above 50 µg/mL; in the experiment with Staphylococcus aureus it was 12.5 µg/mL (≈ 29 µM); in the experiment with Saccharomyces cerevisiae, 50 µg/mL (≈ 116 µM).
For `CN[C@@H]1C=C2CC[C@H]3[C@@H]4CC[C@H]([C@H](C)CCCC(C)C)[C@@]4(C)CC[C@@H]3[C@@]2(C)CC1`, the MIC in the experiment with Enterococcus faecalis was 25 µg/mL (≈ 62.5 µM); against Candida albicans, 12.5 µg/mL (≈ 31.3 µM); against Escherichia coli it was above 50 µg/mL; with Staphylococcus aureus, 1.56 µg/mL (≈ 3.9 µM); against Saccharomyces cerevisiae it was 12.5 µg/mL (≈ 31.3 µM).
Turning to `CC(C)CCC[C@@H](C)[C@H]1CC[C@H]2[C@@H]3CCC4=C[C@@H](NCCCCCCCCCN)CC[C@]4(C)[C@H]3CC[C@]12C`, the MIC against Enterococcus faecalis, against Candida albicans, against Escherichia coli, against Staphylococcus aureus and in the experiment on Saccharomyces cerevisiae was above 50 µg/mL throughout.
Consider `CC(C)CCC[C@@H](C)[C@H]1CC[C@H]2[C@@H]3CCC4=C[C@@H](NCCCCCCCN)CC[C@]4(C)[C@H]3CC[C@]12C`, for which the MIC against Enterococcus faecalis, with Candida albicans, in the experiment with Escherichia coli, in the experiment on Staphylococcus aureus and with Saccharomyces cerevisiae was above 50 µg/mL in each case.
On to `CC(C)CCC[C@@H](C)[C@H]1CC[C@H]2[C@@H]3CCC4=C[C@@H](NCCCCN)CC[C@]4(C)[C@H]3CC[C@]12C`, for which the MIC in the experiment with Enterococcus faecalis was determined as 6.25 µg/mL (≈ 13.7 µM); against Candida albicans, 6.25 µg/mL (≈ 13.7 µM); with Escherichia coli, 25 µg/mL (≈ 54.7 µM); with Staphylococcus aureus it was 6.25 µg/mL (≈ 13.7 µM); with Saccharomyces cerevisiae, 12.5 µg/mL (≈ 27.4 µM).
For `CC(C)CCC[C@@H](C)[C@H]1CC[C@H]2[C@@H]3CCC4=C[C@@H](NCCCCCCN)CC[C@]4(C)[C@H]3CC[C@]12C`, the MIC in the experiment with Enterococcus faecalis, in the experiment with Candida albicans, in the experiment on Escherichia coli, with Staphylococcus aureus and against Saccharomyces cerevisiae was above 50 µg/mL in each case.
`CC(C)CCC[C@@H](C)[C@H]1CC[C@H]2[C@@H]3CC[C@H]4C[C@@H](NCCCCN)CC[C@]4(C)[C@H]3CC[C@]12C`: the minimal inhibitory concentration (MIC) was above 50 µg/mL against Enterococcus faecalis; 25 µg/mL (≈ 54.5 µM) in the experiment with Candida albicans; above 50 µg/mL against Escherichia coli; 12.5 µg/mL (≈ 27.2 µM) against Staphylococcus aureus; 50 µg/mL (≈ 109 µM) against Saccharomyces cerevisiae.
Regarding `CC(C)CCCC(C)C1CCC2C3CCC4CC(NCCCCCCCN)CCC4(C)C3CCC12C` (stereo not drawn), the MIC against Enterococcus faecalis, against Candida albicans, in the experiment with Escherichia coli, in the experiment on Staphylococcus aureus and in the experiment with Saccharomyces cerevisiae was above 50 µg/mL in each case.
Take `CC(C)CCC[C@@H](C)[C@H]1CC[C@H]2[C@@H]3CCC4=C[C@@H](NCCCCCCCCCCCCN)CC[C@]4(C)[C@H]3CC[C@]12C`: the MIC with Enterococcus faecalis, against Candida albicans, against Escherichia coli, with Staphylococcus aureus and against Saccharomyces cerevisiae was above 50 µg/mL in each case.

(Values after ChEMBL document CHEMBL1149783, “New stereoselective titanium reductive amination synthesis of 3-amino and polyaminosterol derivatives possessing antimicrobial activities” (2008).)
